Assays:
endotoxin [1] = system: endotoxin
endotoxin [2] = system: endotoxin; remark: listed apart in the source

Compound | Endotoxin concentration compared to the treatments with chloramine, DBNPA and Cl-MIT alone (endotoxin [1]) [%] | Discharge amount of endotoxin compared to raw water and Control (in words) (endotoxin [2]) | Endotoxin concentration (endotoxin [1]) [EU/mL]
O=S(=O)(O)NCl.[Na] [Chlorosulfamic acid, sodium monochlorosulfamic acid] | ≤ 50 | suppress the discharge amount of endotoxin to be low compared to the raw water and Control | –
N#CC(Br)(Br)C(N)=O [DBNPA, 2,2-dibromo-3-nitrilopropionamide, reference compound] | – | – | 19.1
Chloramine [reference compound] | – | – | 31.1

Reference: patent US20260193116A1, “MEMBRANE TREATMENT METHOD, BIOFOULING INHIBITION METHOD, AND ENDOTOXIN PRODUCTION INHIBITION METHOD IN WATER SYSTEM” (KURITA WATER INDUSTRIES LTD., priority 2022, published 2026)
